Measured values taken from US12384789B2, “Compounds for treating Huntington's disease” (PTC Therapeutics, Inc., priority 2017, dated 2025).

System: Endogenous Huntingtin Protein
Experiment: Endogenous Huntingtin Protein Assay (Meso Scale Discovery ELISA-based electrochemiluminescence)
Format: cell-based
Conditions: MSD electrochemiluminescence, Table 1
Method: Compounds of Formula (I) were tested using the Meso Scale Discovery (MSD) Assay provided in International Application No. PCT/US2016/066042, filed on Dec. 11, 2016 and claiming priority to United States Provisional Application U.S. 62/265,652 filed on Dec. 10, 2015, the entire contents of which are incorporated herein by reference.
The Endogenous Huntingtin Protein assay used in Example 1 was developed using the ELISA-based MSD electrochemiluminescence assay platform.
Endogenous Huntingtin Protein Assay
Meso Scale Discovery (MSD) 96-well or 384-well plates were coated overnight at 4° C. with MW1 (expanded polyglutamine) or MAB2166 monoclonal antibody (for capture) at a concentration of 1 μg/mL in PBS (30 μL per well). Plates were then washed three times with 300 μL wash buffer (0.05% Tween-20 in PBS) and blocked (100 μL blocking buffer; 5% BSA in PBS) for 4-5 hours at room temperature with rotational shaking and then washed three times with wash buffer.
Samples (25 μL) were transferred to the antibody-coated MSD plate and incubated overnight at 4° C. After removal of the lysates, the plate was washed three times with wash buffer, and 25 μL of #5656S (Cell signaling; rabbit monoclonal) secondary antibody (diluted to 0.25 μg/mL in 0.05% Tween-20 in blocking buffer) was added to each well and incubated with shaking for 1 Hour at room temperature. Following incubation with the secondary antibody, the wells were rinsed with wash buffer after which 25 μL of goat anti-rabbit SULFO TAG secondary detection antibody (required aspect of the MSD system) (diluted to 0.25 μg/mL in 0.05% Tween-20 in blocking buffer) was added to each well and incubated with shaking for 1 hour at room temperature. After rinsing three times with wash buffer, 150 μL of read buffer T with surfactant (MSD) were added to each empty well, and the plate was imaged on a SI 6000 imager (MSD) according to manufacturers' instructions provided for 96- or 384-well plates.

Row | IC50 | Compound
1 | ≤ 100 nM | Cc1cc(-c2cc(F)c3cc(C4CCNCC4)ncc3c2)cc2cn(C)nc12 [Compound 71, 7-(2,7-dimethyl-2H-indazol-5-yl)-5-fluoro-3-(piperidin-4-yl)isoquinoline]
2 | ≤ 100 nM | Cc1cn2nc(-c3cc(F)c4cc(C5CCNCC5)ncc4c3)cc(C)c2n1 [Compound 72, 7-(2,8-dimethylimidazo[1,2-b]pyridazin-6-yl)-5-fluoro-3-(piperidin-4-yl)isoquinoline]
3 | ≤ 100 nM | Cc1cc(-c2cc(F)c3cc(C4CCNCC4)nnc3c2)cc2cn(C)nc12 [Compound 73, 7-(2,7-dimethyl-2H-indazol-5-yl)-5-fluoro-3-(piperidin-4-yl)cinnoline]
4 | ≤ 100 nM | Cc1cn2nc(-c3cc(F)c4cc(C5CCNCC5)nnc4c3)cc(C)c2n1 [Compound 74, 7-(2,8-dimethylimidazo[1,2-b]pyridazin-6-yl)-5-fluoro-3-(piperidin-4-yl)cinnoline]
5 | ≤ 100 nM | Cc1cn2nc(-c3cc(F)c4cc(C5CCN(CCO)CC5)nnc4c3)cc(C)c2n1 [Compound 75, 2-{4-[7-(2,8-dimethylimidazo[1,2-b]pyridazin-6-yl)-5-fluorocinnolin-3-yl]piperidin-1-yl}ethanol]
6 | ≤ 100 nM | CCN1CCC(c2cc3c(F)cc(-c4cc(C)c5nc(C)cn5n4)cc3nn2)CC1 [Compound 76, 7-(2,8-dimethylimidazo[1,2-b]pyridazin-6-yl)-3-(1-ethylpiperidin-4-yl)-5-fluorocinnoline]
7 | ≤ 100 nM | CCCN1CCC(c2cc3c(F)cc(-c4cc(C)c5nc(C)cn5n4)cc3nn2)CC1 [Compound 77, 7-(2,8-dimethylimidazo[1,2-b]pyridazin-6-yl)-5-fluoro-3-(l-propylpiperidin-4-yl)cinnoline]
8 | ≤ 100 nM | Cc1cn2nc(-c3cc(F)c4cc(C5CCN(C(C)C)CC5)nnc4c3)cc(C)c2n1 [Compound 78, 7-(2,8-dimethylimidazo[1,2-b]pyridazin-6-yl)-5-fluoro-3-[1-(propan-2-yl)piperidin-4-yl]cinnoline]
9 | ≤ 100 nM | Cc1cn2nc(-c3cc(F)c4cc(C5CCN(C)CC5)nnc4c3)cc(C)c2n1 [Compound 79, 7-(2,8-dimethylimidazo[1,2-b]pyridazin-6-yl)-5-fluoro-3-(1-methylpiperidin-4-yl)cinnoline]
10 | ≤ 100 nM | Cc1cn2nc(-c3cc(F)c4cc(N5CCNCC5)nnc4c3)cc(C)c2n1 [Compound 80, 7-(2,8-dimethylimidazo[1,2-b]pyridazin-6-yl)-5-fluoro-3-(piperazin-1-yl)cinnoline]
11 | ≤ 100 nM | Cc1cn2nc(-c3cc(F)c4cc(N5C[C@@H](C)N[C@@H](C)C5)nnc4c3)cc(C)c2n1 [Compound 81, 7-(2,8-dimethylimidazo[1,2-b]pyridazin-6-yl)-3-[(3R,5S)-3,5-dimethylpiperazin-1-yl]-5-fluorocinnoline]
12 | ≤ 100 nM | Cc1cn2nc(-c3cc(F)c4nc(C5CCNCC5)cnc4c3)cc(C)c2n1 [Compound 82, 6-(2,8-dimethylimidazo[1,2-b]pyridazin-6-yl)-8-fluoro-2-(piperidin-4-yl)quinoxaline]
13 | ≤ 100 nM | Cc1cn2nc(-c3cc(F)c4cc(C5CCN(CCF)CC5)nnc4c3)cc(C)c2n1 [Compound 83, 7-(2,8-dimethylimidazo[1,2-b]pyridazin-6-yl)-5-fluoro-3-[1-(2-fluoroethyl)piperidin-4-yl]cinnoline]
14 | ≤ 100 nM | Cc1cn2nc(-c3ccc4cc(C5CCNCC5)nnc4c3)cc(C)c2n1 [Compound 84, 7-(2,8-dimethylimidazo[1,2-b]pyridazin-6-yl)-3-(piperidin-4-yl)cinnoline]
15 | 100 to 500 nM | CCN1CCC(c2cc3ccc(-c4cc(C)c5nc(C)cn5n4)cc3nn2)CC1 [Compound 85, 7-(2,8-dimethylimidazo[1,2-b]pyridazin-6-yl)-3-(1-ethylpiperidin-4-yl)cinnoline]
16 | ≤ 100 nM | Cc1cn2nc(-c3cc(F)c4cc(N5CCC(N(C)C)C5)nnc4c3)cc(C)c2n1 (centres unmarked) [Compound 86, 1-[7-(2,8-dimethylimidazo[1,2-b]pyridazin-6-yl)-5-fluorocinnolin-3-yl]-N,N-dimethylpyrrolidin-3-amine]
17 | ≤ 100 nM | Cc1cn2nc(-c3cc(F)c4cc(C5C[C@H](C)N[C@@H](C)C5)nnc4c3)cc(C)c2n1 (stereo partly drawn) [Compound 87, 7-(2,8-dimethylimidazo[1,2-b]pyridazin-6-yl)-3-[(2S,6S)-2,6-dimethylpiperidin-4-yl]-5-fluorocinnoline]
18 | ≤ 100 nM | Cc1cn2nc(-c3cc(F)c4cc(N5CCC(N(C)C)CC5)nnc4c3)cc(C)c2n1 [Compound 88, 1-[7-(2,8-dimethylimidazo[1,2-b]pyridazin-6-yl)-5-fluorocinnolin-3-yl]-N,N-dimethylpiperidin-4-amine]

Row | IC50 | Compound
19 | ≤ 100 nM | Cc1cn2nc(-c3cc(F)c4cc(N5CC[C@@H](N(C)C)C5)nnc4c3)cc(C)c2n1 [Compound 89, (3R)-1-[7-(2,8-dimethylimidazo[1,2-b]pyridazin-6-yl)-5-fluorocinnolin-3-yl]-N,N-dimethylpyrrolidin-3-amine]
20 | ≤ 100 nM | Cc1cn2nc(-c3cc(F)c4cc(C5C[C@@H](C)N[C@@H](C)C5)nnc4c3)cc(C)c2n1 (stereo partly drawn) [Compound 90, 7-(2,8-dimethylimidazo[1,2-b]pyridazin-6-yl)-3-[(2R,4r,6S)-2,6-dimethylpiperidin-4-yl]-5-fluorocinnoline]
21 | 1000 to 3000 nM | Cc1cn2cc(-c3cc(F)c4cc(C5CCNCC5)nnc4c3)cnc2n1 [Compound 91, 5-fluoro-7-(2-methylimidazo[1,2-a]pyrimidin-6-yl)-3-(piperidin-4-yl)cinnoline]
22 | ≤ 100 nM | Cc1cn2cc(-c3cc(F)c4cc(C5CCNCC5)nnc4c3)cc(F)c2n1 [Compound 92, 5-fluoro-7-(8-fluoro-2-methylimidazo[1,2-a]pyridin-6-yl)-3-(piperidin-4-yl)cinnoline]
23 | ≤ 100 nM | Cc1cn2cc(-c3cc(F)c4cc(C5CCNCC5)nnc4c3)cc(C#N)c2n1 [Compound 93, 6-[5-fluoro-3-(piperidin-4-yl)cinnolin-7-yl]-2-methylimidazo[1,2-a]pyridine-8-carbonitrile]
24 | 100 to 500 nM | Cc1nc2ccc(-c3cc(F)c4cc(C5CCNCC5)nnc4c3)cn2n1 [Compound 94, 5-fluoro-7-(2-methyl[1,2,4]triazolo[1,5-a]pyridin-6-yl)-3-(piperidin-4-yl)cinnoline]
25 | ≤ 100 nM | Cn1cc2cc(-c3cc(F)c4cc(C5CCNCC5)nnc4c3)ccc2n1 [Compound 95, 5-fluoro-7-(2-methyl-2H-indazol-5-yl)-3-(piperidin-4-yl)cinnoline]
26 | ≤ 100 nM | Cn1cc2cc(-c3cc(F)c4cc(C5CCNCC5)nnc4c3)cc(F)c2n1 [Compound 96, 5-fluoro-7-(7-fluoro-2-methyl-2H-indazol-5-yl)-3-(piperidin-4-yl)cinnoline]
27 | 500 to 1000 nM | Cn1cc2cc(-c3cc(F)c4cc(C5CCNCC5)nnc4c3)c(F)cc2n1 [Compound 97, 5-fluoro-7-(6-fluoro-2-methyl-2H-indazol-5-yl)-3-(piperidin-4-yl)cinnoline]
28 | 100 to 500 nM | Cc1cn2nc(-c3cc(F)c4cc(C5CCN(CC(F)F)CC5)nnc4c3)cc(C)c2n1 [Compound 98, 3-[1-(2,2-difluoroethyl)piperidin-4-yl]-7-(2,8-dimethylimidazo[1,2-b]pyridazin-6-yl)-5-fluorocinnoline]
29 | ≤ 100 nM | Cc1cn2nc(-c3cc(F)c4cc(C5CCNCC5)nnc4c3)ccc2n1 [Compound 99, 5-fluoro-7-(2-methylimidazo[1,2-b]pyridazin-6-yl)-3-(piperidin-4-yl)cinnoline]
30 | ≤ 100 nM | CCN1CCC(c2cc3c(F)cc(-c4ccc5nc(C)cn5n4)cc3nn2)CC1 [Compound 100, 3-(1-ethylpiperidin-4-yl)-5-fluoro-7-(2-methylimidazo[1,2-b]pyridazin-6-yl)cinnoline]
31 | ≤ 100 nM | Cc1cn2cc(-c3cc(F)c4cc(C5CCNCC5)nnc4c3)cc2c(C)n1 [Compound 101, 7-(1,3-dimethylpyrrolo[1,2-a]pyrazin-7-yl)-5-fluoro-3-(piperidin-4-yl)cinnoline]
32 | ≤ 100 nM | CCN1CCC(c2cc3c(F)cc(-c4cc(F)c5nc(C)cn5c4)cc3nn2)CC1 [Compound 102, 3-(1-ethylpiperidin-4-yl)-5-fluoro-7-(8-fluoro-2-methylimidazo[1,2-a]pyridin-6-yl)cinnoline]
33 | ≤ 100 nM | Cc1cn2cc(-c3cc(F)c4cc(C5CCNCC5)nnc4c3)cc(C)c2n1 [Compound 103, 7-(2,8-dimethylimidazo[1,2-a]pyridin-6-yl)-5-fluoro-3-(piperidin-4-yl)cinnoline]
34 | ≤ 100 nM | Cn1cc2cc(-c3cc(F)c4cc(C5CCNCC5)nnc4c3)cc(C#N)c2n1 [Compound 104, 5-[5-fluoro-3-(piperidin-4-yl)cinnolin-7-yl]-2-methyl-2H-indazole-7-carbonitrile]
35 | ≤ 100 nM | CCc1cc(-c2cc(F)c3cc(C4CCNCC4)nnc3c2)nn2cc(C)nc12 [Compound 105, 7-(8-ethyl-2-methylimidazo[1,2-b]pyridazin-6-yl)-5-fluoro-3-(piperidin-4-yl)cinnoline]
